Laboratory results reported in patent publication US20120108811A1, “PROCESS FOR PREPARING TEMOZOLOMIDE” (FORMOSA LABORATORIES INC., priority 2010, published 2012).

What was measured:
Assay type in all cases: physicochemical
[1] = Accelerated stability of Temozolomide prepared by conventional method, 25° C. ± 2° C., 60% ± 5% RH; conditions: for AICA NMT 0.15% / Appearance (White to off-white powder) / Assay (HPLC) (98.0-102.0%) / Individual unknown impurity NMT 0.10% / Purity (HPLC) NLT 99.0% / Total impurities NMT 1.00% / Water content (KF), NMT 1.00%: conventional method, 25° C. ± 2° C., RH 60% ± 5%
[2] = Long-term stability of Temozolomide prepared by the process of the present invention, 2-8° C.; conditions: for AICA NMT 0.15% / Appearance (White to off-white powder) / Assay (HPLC) (98.0-102.0%) / Purity (HPLC) NLT 99.0% / Total impurities NMT 1.00% / Water content (KF), NMT 1.00%: process of the present invention, 2-8° C.
Protocol: The Temozolomide was stable at temperature 2-8° C. for at least 18 months.

[3] = Long-term stability of Temozolomide prepared by conventional method, 2-8° C.; conditions: conventional method, 2-8° C.
Protocol: The Temozolomide was stable at temperature 2-8° C.

Cn1nnc2c(C(N)=O)ncn2c1=O [Temozolomide, 8-carbamoyl-3-methyl-imidazo[5,1-d]-1,2,3,5-tetrazin-4(3H)-one]
AICA NMT 0.15% ([1]; 0 time): 0.06%
Appearance (White to off-white powder) ([1]; 0 time): White
Assay (HPLC) (98.0-102.0%) ([1]; 0 time): 101.7%
Individual unknown impurity NMT 0.10% ([1]; 0 time): 0.01%
Purity (HPLC) NLT 99.0% ([1]; 0 time): 99.9%
Total impurities NMT 1.00% ([1]; 0 time): 0.08%
Water content (KF), NMT 1.00% ([1]; 0 time): 0.17%
AICA NMT 0.15% ([1]; 1 month): 0.24%
Appearance (White to off-white powder) ([1]; 1 month): Off-white
Assay (HPLC) (98.0-102.0%) ([1]; 1 month): 101.7%
Individual unknown impurity NMT 0.10% ([1]; 1 month): 0.01%
Purity (HPLC) NLT 99.0% ([1]; 1 month): 99.8%
Total impurities NMT 1.00% ([1]; 1 month): 0.25%
Water content (KF), NMT 1.00% ([1]; 1 month): 0.25%
AICA NMT 0.15% ([1]; 2 months): 0.64%
Appearance (White to off-white powder) ([1]; 2 months): Off-white
Assay (HPLC) (98.0-102.0%) ([1]; 2 months): 99.4%
Individual unknown impurity NMT 0.10% ([1]; 2 months): 0.01%
Purity (HPLC) NLT 99.0% ([1]; 2 months): 99.3%
Total impurities NMT 1.00% ([1]; 2 months): 0.67%
Water content (KF), NMT 1.00% ([1]; 2 months): 0.24%
Stability (in words) ([1]; prepared by conventional method, temperature 25 degree ° C.): easily to degrade to out of specification
Time stable ([2]; prepared by the process of the present invention, temperature 2-8° C.): at least 18 months
AICA NMT 0.15% ([2]; 0 time): 0.01%
Appearance (White to off-white powder) ([2]; 0 time): White
Assay (HPLC) (98.0-102.0%) ([2]; 0 time): 99.7%
Purity (HPLC) NLT 99.0% ([2]; 0 time): 100.0%
Total impurities NMT 1.00% ([2]; 0 time): 0.01%
Water content (KF), NMT 1.00% ([2]; 0 time): 0.09%
AICA NMT 0.15% ([2]; 1 month): 0.01%
Appearance (White to off-white powder) ([2]; 1 month): White
Assay (HPLC) (98.0-102.0%) ([2]; 1 month): 98.6%
Purity (HPLC) NLT 99.0% ([2]; 1 month): 100.0%
Total impurities NMT 1.00% ([2]; 1 month): 0.01%
Water content (KF), NMT 1.00% ([2]; 1 month): 0.07%
AICA NMT 0.15% ([2]; 2 months): 0.01%
Appearance (White to off-white powder) ([2]; 2 months): White
Assay (HPLC) (98.0-102.0%) ([2]; 2 months): 99.3%
Purity (HPLC) NLT 99.0% ([2]; 2 months): 100.0%
Total impurities NMT 1.00% ([2]; 2 months): 0.01%
Water content (KF), NMT 1.00% ([2]; 2 months): 0.04%
AICA NMT 0.15% ([2]; 3 months): 0.09%
Appearance (White to off-white powder) ([2]; 3 months): White
Assay (HPLC) (98.0-102.0%) ([2]; 3 months): 99.6%
Purity (HPLC) NLT 99.0% ([2]; 3 months): 99.7%
Total impurities NMT 1.00% ([2]; 3 months): 0.09%
Water content (KF), NMT 1.00% ([2]; 3 months): 0.09%
Appearance (White to off-white powder) ([2]; 6 months): White
Assay (HPLC) (98.0-102.0%) ([2]; 6 months): 99.9%
Purity (HPLC) NLT 99.0% ([2]; 6 months): 100.0%
Water content (KF), NMT 1.00% ([2]; 6 months): 0.12%
AICA NMT 0.15% ([2]; 9 months): 0.01%
Appearance (White to off-white powder) ([2]; 9 months): White
Assay (HPLC) (98.0-102.0%) ([2]; 9 months): 100.8%
Purity (HPLC) NLT 99.0% ([2]; 9 months): 100.0%
Total impurities NMT 1.00% ([2]; 9 months): 0.01%
Water content (KF), NMT 1.00% ([2]; 9 months): 0.15%
AICA NMT 0.15% ([2]; 12 months): 0.02%
Appearance (White to off-white powder) ([2]; 12 months): Light pink
Assay (HPLC) (98.0-102.0%) ([2]; 12 months): 99.8%
Purity (HPLC) NLT 99.0% ([2]; 12 months): 100.0%
Total impurities NMT 1.00% ([2]; 12 months): 0.02%
Water content (KF), NMT 1.00% ([2]; 12 months): 0.06%
Appearance (White to off-white powder) ([2]; 18 months): White
Assay (HPLC) (98.0-102.0%) ([2]; 18 months): 99.8%
Purity (HPLC) NLT 99.0% ([2]; 18 months): 100.0%
Water content (KF), NMT 1.00% ([2]; 18 months): 0.16%
AICA NMT 0.15% ([3]; 0 time): 0.06%
Appearance (White to off-white powder) ([3]; 0 time): White
Assay (HPLC) (98.0-102.0%) ([3]; 0 time): 101.7%
Individual unknown impurity NMT 0.10% ([3]; 0 time): 0.01%
Purity (HPLC) NLT 99.0% ([3]; 0 time): 99.9%
Total impurities NMT 1.00% ([3]; 0 time): 0.08%
Water content (KF), NMT 1.00% ([3]; 0 time): 0.17%
AICA NMT 0.15% ([3]; 1 month): 0.02%
Appearance (White to off-white powder) ([3]; 1 month): White
Assay (HPLC) (98.0-102.0%) ([3]; 1 month): 101.4%
Individual unknown impurity NMT 0.10% ([3]; 1 month): 0.02%
Purity (HPLC) NLT 99.0% ([3]; 1 month): 100.0%
Total impurities NMT 1.00% ([3]; 1 month): 0.03%
Water content (KF), NMT 1.00% ([3]; 1 month): 0.36%
AICA NMT 0.15% ([3]; 2 months): 0.04%
Appearance (White to off-white powder) ([3]; 2 months): White
Assay (HPLC) (98.0-102.0%) ([3]; 2 months): 99.8%
